Test [1] deals with ERK2 (Rattus norvegicus (Rat), UniProt P63086). Description: Binding of DRS compound to ERK2 (FIG. 10).
Test [2] deals with A375 melanoma cells. Description: Proliferation of A375 melanoma cells (Example 3). It counts as cell-based. The source says: We examined the effects of these compounds on proliferation of A375 melanoma cells with BRaf mutations that require ERK activation for survival.
Moreover, 76.3 and TMZ also appeared to delay tumor growth in mice harboring A375 tumors indicative of prolonged survival (FIG. 13B).

The test system of test [3] is A375 melanoma cells. The experiment in a line: Cell proliferation, fluorescent Cell Titer Blue Assay (Example 1). Format: cell-based. The settings on record: Homo sapiens, A-375; 48 hours. The method, then: (§1) FIG. 5. Dose dependent inhibition of cancer cell proliferation in vitro by SF-3-026 and analogs. A375 (closes circles), RPM17951 (closed squares), HeLa (open circles), or Jurkat (open squares) cells were treated for 48 hours with indicated concentration of (a) SF-3-026, (b) SF-2-027, (c) SF-2-029, or (d) SF-2-030 and cell proliferation was assessed by the fluorescent Cell Titer Blue Assay. The data were reproduced in 3 separate experiments.
(§2) Cells were seeded at 25,000 cells/well in 96-well plate and cultured overnight. Cells were treated for 24 hours with various concentrations of compounds and cell viability or caspase 3/7 activity were measured according to manufacturer's instructions using the fluorescent Cell Titer Blue Assay (Promega) or luminescent Caspase 3/7 Glo Assay (Promega).
(§3) It was next determined whether inhibition of AP-1 proteins by SF-3-026 and analogs affected the proliferation of cancer cells driven by mutations that constitutively activate the ERK1/2 pathway. For these experiments, A375 and RPMI7951 melanoma cells, which have a valine to glutamate mutation on residue 600 in BRaf that causes constitutive ERK1/2 activation, were chosen. Moreover, RPMI7951 cells are resistant to clinically used BRaf inhibitors due to overexpression of MAP3K8 (the gene encoding COT/Tp12) that re-activates ERK1/2 signaling. Both melanoma cells lines were treated with varying doses of SF-3-026 or analogs and cell viability was compared to HeLa cervical carcinoma and Jurkat T-cell leukemia cells, which are p53 defective but contain no known activating mutations in the ERK1/2 pathway.

Test [4] concerns HeLa cervical carcinoma cells. The test is described as above. It counts as cell-based. The following applies: Homo sapiens, 48 hours. The method, then:
as §1, §2, §3

Test [5] has as its system Jurkat T-cell leukemia cells. Described as above. Format: cell-based. The following applies: Homo sapiens, 48 hours. The protocol:
as §1, §2, §3

In test [6] the test system is RPMI7951 melanoma cells. Described as above. The following applies: Homo sapiens, RPMI-7951; 48 hours. It counts as cell-based. The method, then: as §1, §2, §3
The subject of test [7] is AP-1 promoter. The experiment in a line: AP-1 promoter luciferase assay, EGF-stimulated HeLa cells (Example 1). The settings on record: Homo sapiens, EGF stimulation, 4 hours, read-out: IC50 inhibition of the AP-1 promoter. Format: cell-based. The protocol: FIG. 4. Compound SF-3-026 and analogs inhibit SRE and AP-1 transcription factor function. (a) HeLa cells were transfected with constructs containing SRE or AP-1 promoters driving luciferase expression and then stimulated with EGF in the presence or absence of SF-3-026 for 4 hours followed by measurements of luciferase activity. Cells treated with U0126 were used as a positive inhibitor control. (b and c) HeLa cells were prepared and treated as in (a) with the indicated concentrations of SF-3-026 or analogs for 4 hours followed by the measurement of luciferase activity regulated by the SRE (b) or AP-1 (c) promoters. Data in (b and c) were normalized to EGF-only treatment and represent the mean and standard deviation from three independent experiments. (d) Compound SF-3-026 and analogs inhibit MEK1-induced AP-1 transcription factor function. […]
HeLa cells were seeded in 24-well plates (40,000 cells/well) and incubated 18 hours to achieve ˜60-70% confluent. […] The luciferase activity in the cell extracts was determined with a Dual Luciferase Assay System (Promega) according to the manufacturer's instructions. Luciferase activities were monitored with a Lumat LB 9507 luminometer (Berthold Technology) and data were normalized to the amount of protein in each sample. […]

Test [8] relates to MEK1-induced AP-1 promoter activity. Description: AP-1 promoter luciferase assay, HeLa cells expressing active MEK1 mutant. The settings on record: Homo sapiens, 4 hours, read-out: IC50 inhibition of MEK1-induced AP-1 promoter activity. It counts as cell-based. The method, then:
FIG. 4. Compound SF-3-026 and analogs inhibit SRE and AP-1 transcription factor function. (a) HeLa cells were transfected with constructs containing SRE or AP-1 promoters driving luciferase expression and then stimulated with EGF in the presence or absence of SF-3-026 for 4 hours followed by measurements of luciferase activity. Cells treated with U0126 were used as a positive inhibitor control. (b and c) HeLa cells were prepared and treated as in (a) with the indicated concentrations of SF-3-026 or analogs for 4 hours followed by the measurement of luciferase activity regulated by the SRE (b) or AP-1 (c) promoters. Data in (b and c) were normalized to EGF-only treatment and represent the mean and standard deviation from three independent experiments. (d) Compound SF-3-026 and analogs inhibit MEK1-induced AP-1 transcription factor function. HeLa cells were transfected with the AP-1 promoter construct and a constitutively active MEK1 mutant in the presence (10 μM) or absence of the MEK1/2 inhibitor (U0126) or an ATP-competitive ERK inhibitor (ERKi) for 4 hours followed by measurements of luciferase activity. (e) Cells expressing the AP-1 promoter and an active MEK-1 construct were treated with the indicated concentrations of SF-3-026 or analogs for 4 hours followed by the measurement of luciferase activity. Data in (e) were normalized to active MEK1-only treatment and represent the mean and standard deviation from three independent experiments.
HeLa cells were seeded in 24-well plates (40,000 cells/well) and incubated 18 hours to achieve ˜60-70% confluent. Cells were transfected with activator protein-1 (pAP1(PMA)-TA-Luc; Clontech) or the serum response element (pGL4.33-SRE; Promega) luciferase reporter plasmids (250 ng/well) using Lipofectamine™ (Invitrogen). After 16 hours, cells were pre-treated with varying amounts of compounds as indicated for 20 minutes, followed by stimulation with EGF (25 ng/mL) for 4.5 hr. In some experiments, cells transfected with the pAP1(PMA)-TA-Luc promoter and a constitutively active MEK1 mutant cDNA were treated with varying amounts of compounds during the last 4 hours of incubation. The luciferase activity in the cell extracts was determined with a Dual Luciferase Assay System (Promega) according to the manufacturer's instructions. Luciferase activities were monitored with a Lumat LB 9507 luminometer (Berthold Technology) and data were normalized to the amount of protein in each sample. […]

The test system of test [9] is A375 melanoma cells. Description: Caspase 3/7 Glo Assay. It counts as cell-based. The settings on record: varying doses, 24 hours. The protocol: FIG. 6. SF-3-030 induces growth inhibition and apoptosis in A375 melanoma cells. A375 were seeded in a 96-well plate and incubated for 18-20 hours. Cells were treated with varying concentrations of SF-3-030 and allowed to incubate for an additional 24 hours. Cell viability was measured using the fluorescent Cell Titer Blue Assay and caspase 3/7 activity was measured using the luminescent Caspase 3/7 Glo Assay. Data represent the average of two experiments performed in duplicate.
as §2
(§4) To test whether the inhibition of cell proliferation was due to an apoptotic response, A375 and HeLa cells were treated with varying doses of SF-3-030 and cell viability along with caspase 3/7 activity was measured.

Test [10] concerns HeLa cells. The experiment in a line: Caspase 3/7 Glo Assay. It counts as cell-based. The settings on record: varying doses. The method, then:
as §2, §4

In test [11] the test system is c-Fos, Fra1, and FosB expression. The experiment in a line: Immunoblot of EGF-induced c-Fos, Fra1 and FosB expression in HeLa cells. The settings on record: EGF 25 ng/mL. Format: cell-based. The protocol:
FIG. 3. EGF-mediated induction of AP-1 proteins is inhibited by SF-3-026 and SF-3-030. (a) HeLa cells were treated for 10, 30, or 60 min. with EGF (25 ng/mL) in the presence of 50 μM SF-3-026 or 10 μM U0126. Protein lysates were immunoblotted for c-Fos, Fra1, FosB and FosB2. Phosphorylated ERK1/2 is not affected by SF-3-026 and α-tubulin expression is shown for a protein loading control. (b) Protein lysates from HeLa cells treated for 30 min. with EGF in the absence or presence of 10, 25, 50, or 100 μM of SF-3-026 or SF-3-030 were immunoblotted for c-Fos, Fra1, FosB, FosB2, as well as phosphorylated ERK1/2 and MEK1/2. Total ERK2 and α-tubulin expression are shown for protein loading controls. Data are representative of three independent experiments.
Analysis of protein expression levels, activity, and cell proliferation were done as previously described. […] Proteins were separated by SDS-PAGE, analyzed by immunoblotting, and detected using enhanced chemiluminescence (ECL, GE Healthcare, United Kingdom).
The reported half-life for c-Fos is ˜10 minutes and growth factor-mediated stabilization of c-Fos protein expression can be observed within 30-60 minutes, whereas stabilization of Fra1 protein is delayed due to AP-1 regulation of the Fra1 promoter. Thus, growth factor-mediated induction of c-Fos, Fra1, and FosB expression was evaluated following treatment with SF-3-026. […]
A general note: A western blot detects proteins with antibodies after separation by electrophoresis.

Sequence of ERK2 (P63086 whole entry): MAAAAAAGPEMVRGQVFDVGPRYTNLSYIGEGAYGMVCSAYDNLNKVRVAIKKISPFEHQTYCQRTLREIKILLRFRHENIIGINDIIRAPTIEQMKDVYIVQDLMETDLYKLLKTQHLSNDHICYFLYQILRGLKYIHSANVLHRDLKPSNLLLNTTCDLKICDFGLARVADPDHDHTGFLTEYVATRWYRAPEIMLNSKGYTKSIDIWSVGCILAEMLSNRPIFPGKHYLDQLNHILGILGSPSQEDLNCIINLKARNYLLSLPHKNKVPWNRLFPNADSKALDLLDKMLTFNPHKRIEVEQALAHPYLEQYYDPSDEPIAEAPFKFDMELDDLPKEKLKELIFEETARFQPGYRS

On to `CCOc1ccc(/C=C2\SC(=O)N(CCNc3nc(Cl)nc(Cl)n3)C2=O)cc1` [SF-2-054], for which the “affinity (site 1 on ERK2)” value in [1] is “high nM affinity”. For the same compound, the “effect on A375 cell proliferation” value in test [2] is on record as “selective inhibition of A375 cells”.

In general, GI50 refers to the concentration at which growth is held to half of that of the control. As usually defined, the IC50 is the midpoint of a concentration-inhibition curve. In the case of `O=S1(=O)C=CC(OS(=O)(=O)c2ccc(-c3ccccc3)cc2)C1` (centres unmarked) [SF-3-029], the GI50 in test [3] was 7.9 µM; in test [4], 25 µM; in test [5], above 50 µM; in test [6], 4.9 µM. For the same compound, the IC50 is below 10 µM in test [7] and 5 to 10 µM in test [8].

Turning to `O=S1(=O)C=CC(OS(=O)(=O)c2ccc3c(c2)CC=CC3)C1` (centres unmarked) [SF-3-030], the GI50 in test [3] is 7.1 µM; in [4], 29 µM; in test [5], above 50 µM; in test [6] it was 4.6 µM. For the same compound, the half-inhibitory concentration (IC50) was below 10 µM in test [7] and 5 to 10 µM in test [8]. Also, in test [9], the “caspase 3/7 activity in A375 cells” value was “dose dependent increase”. For the same compound, the “caspase 3/7 activity in HeLa cells” value in [10] is on record as “did not show increased caspase 3/7 activity”. In test [11], the “inhibition of EGF-induced c-Fos, Fra1, and FosB expression” value is given as “higher potency”.

These data come from patent publication US9115122B2, “Non-ATP dependent inhibitors of extracellular signal-regulated kinase (ERK)” (UNIVERSITY OF MARYLAND, BALTIMORE, priority 2012, dated 2015).
